The values below are quoted from earlier work in PMC11064828 (Journal of Nuclear Medicine, 2024).

Series [1] relates to CAIX. Conditions: phase 1 study of advanced solid tumors. The source says: As a direct transcriptional target of hypoxia-inducible factor 1α, CAIX is overexpressed in several hard-to-treat tumors, including ccRCC, CRC, breast cancer, and PDAC ([2],[9]–[11]), making it a promising therapeutic target. However, to date, the transition of CAIX-targeting therapies to clinical settings has been poor ([7],[13]). Several small-molecule inhibitors of CAs, including CAIX, have been developed ([7],[13]).

Series [2] has as its system CAIX. Conditions: 2 clinical trials of metastatic ccRCC. The text has this:
As a direct transcriptional target of hypoxia-inducible factor 1α, CAIX is overexpressed in several hard-to-treat tumors, including ccRCC, CRC, breast cancer, and PDAC ([2],[9]–[11]), making it a promising therapeutic target. However, to date, the transition of CAIX-targeting therapies to clinical settings has been poor ([7],[13]).

Regarding `NS(=O)(=O)c1ccc(NC(=O)Nc2ccc(F)cc2)cc1` [SLC-0111], in the series on CAIX [1], the objective responses result is listed as “no objective responses” and the tolerability entry was “well tolerated”.

As for “G250 to the β-emitter [^177Lu]Lu: anti-CAIX monoclonal antibody G250 conjugated to the β-emitter [^177Lu]Lu”, the dose-limiting toxicity entry in the series on CAIX [2] is “dose-limiting myelotoxicity”.
